Data published in patent publication US4988684A, “Novel 4-alkylthio-steroids” (Roussel Uclaf, priority 1988, dated 1991).

Molecular target: T1, aromatase (cytochrome P450 aromatase) (Homo sapiens, UniProt P11511)
T1 construct: Human placentas were used; from tissue; host or cells: human placenta, microsomes (105,000 g pellet)
T1 sequence (P11511 1-503): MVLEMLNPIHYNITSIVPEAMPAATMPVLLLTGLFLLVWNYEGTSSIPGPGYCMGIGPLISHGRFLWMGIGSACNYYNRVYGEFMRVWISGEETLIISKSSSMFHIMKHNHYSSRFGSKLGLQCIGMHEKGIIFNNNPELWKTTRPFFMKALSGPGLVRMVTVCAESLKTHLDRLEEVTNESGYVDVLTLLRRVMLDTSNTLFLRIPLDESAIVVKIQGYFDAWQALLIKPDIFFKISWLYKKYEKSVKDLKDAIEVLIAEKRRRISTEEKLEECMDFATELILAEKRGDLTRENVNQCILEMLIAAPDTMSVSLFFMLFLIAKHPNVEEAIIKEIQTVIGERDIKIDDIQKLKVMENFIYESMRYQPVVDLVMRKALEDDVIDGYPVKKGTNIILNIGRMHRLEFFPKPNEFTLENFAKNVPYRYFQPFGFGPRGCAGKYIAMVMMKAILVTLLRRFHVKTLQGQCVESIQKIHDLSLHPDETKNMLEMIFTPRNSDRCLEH
Test: Aromatase inhibition in human placental microsomes (tritiated water release from 1-2-(^3H)-androstenedione)
Assay type: biochemical
Settings: 25 micrograms protein per test, 60 nM androstene-dione substrate, NADPH, pH 7.2, 37° C., 10 minutes, read-out: IC50 (concentration of inhibitor necessary to decrease by 50% the enzymatic activity)
Method: Inhibition dependent on the concentration (measurement of the IC50 =concentration of the inhibitor necessary to reduce the enzymatic activity by 50%). Human placentas were used which one hour or more after birth were washed, perfused with physiological serum (5 liters) via the umbilical vein and then frozen at -40° C.
The placentas were thawed at 4° C., then homogenized (1:3) in a 10 mM phosphate buffer, pH=7.0, containing 100 mM of potassium chloride (KCl), 10 mM of dithiothreitol (DTT), 10 mM of ethylenediaminetetra-aceticacid (EDTA), 40 mM of nicotinamide and 250 mM of sucrose. The homogenates were then subjected to various stages of centrifugation until the "9000 g" supernatant was obtained (corresponding to cytosol and to endoplasmic reticulum). This supernatant was then subjected to an ultracentrifugation stage (90 minutes, 105,000 g) to obtain the microsome deposit. […] The protein concentration of the microsome suspension was determined by the BRADFORD method (BRADFORD, Anal. Biochem., Vol. 72 (1976), p. 248). […]
The enzymatic reaction was then very quickly started by the addition of 10 microliters of reduced nicotinamide adenine dinucleotide phosphate (NADPH) dissolved in water. […] After centrifugation, and for each tube, 100 microliters of supernatant was removed and counted in the presence of scintillating liquid. […]

Row | Compound | IC50
1 | C[C@]12CCC(=O)C(SCCl)=C1CC[C@@H]1[C@@H]2CC[C@]2(C)C(=O)CC[C@@H]12 [Example 2, 4-Chloromethylthio-Δ^4-androstene-3,17-dione] | 75 nM
2 | C[C@]12CCC(=O)C(SCF)=C1CC[C@@H]1[C@@H]2CC[C@]2(C)C(=O)CC[C@@H]12 [Example 1, 4-fluoromethylthio-Δ^4-androstene-3,17-dione] | 70 nM
